The supplement of paper PMC10307832

Tests used:
Assay in all cases: relative viability (nuclei count vs DMSO), 5 days (fraction); higher = more cells survive
[1] = compound: CN[C@@H]1C[C@H]2O[C@@](C)([C@@H]1OC)n1c3ccccc3c3c4c(c5c6ccccc6n2c5c31)C(=O)NC4 [Staurosporine] + Nc1nc2[nH]cc(CCc3ccc(C(=O)N[C@@H](CCC(=O)O)C(=O)O)cc3)c2c(=O)[nH]1 [Pemetrexed] (partner 0.2 µM)
Outline: (§1)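 Dosing by pin tool came one day after lung cancer cell lines were seeded in 1536-well plates, using either one drug or a fixed anchor-drug dose plus five library-drug doses (not always all listed) in √10 steps. After 5 days, nuclei were counted on 4× images. Relative viability is treated-well nuclei count divided by vehicle-well nuclei count, and values are medians of duplicate plates.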

[2] = compound: O=c1[nH]cc(F)c(=O)[nH]1 [5-Fluorouracil] + Nc1nc2[nH]cc(CCc3ccc(C(=O)N[C@@H](CCC(=O)O)C(=O)O)cc3)c2c(=O)[nH]1 [Pemetrexed] (partner 0.2 µM)
Outline: as §1

[3] = compound: CC1=C(CC(=O)O)c2cc(F)ccc2/C1=C\c1ccc([S+](C)[O-])cc1 [Sulindac] + Cc1cc(Nc2cc(N3CCN(C)CC3)nc(Sc3ccc(NC(=O)C4CC4)cc3)n2)n[nH]1 [Tozasertib] (partner 0.1 µM)
Outline: as §1

[4] = compound: O=c1[nH]cc(F)c(=O)[nH]1 [5-Fluorouracil] + Cc1nc(Nc2ncc(C(=O)Nc3c(C)cccc3Cl)s2)cc(N2CCN(CCO)CC2)n1 [Dasatinib] (partner 0.075 µM)
Outline: as §1

| Cell Line | relative viability ([1]; first compound 0.005 µM) | relative viability ([1]; first compound 0.05 µM) | relative viability ([1]; first compound 0.1581 µM) | relative viability ([1]; first compound 0.5 µM) | relative viability ([2]; first compound 0.02 µM) | relative viability ([2]; first compound 0.2 µM) | relative viability ([2]; first compound 0.6325 µM) | relative viability ([2]; first compound 2 µM) | relative viability ([3]; first compound 0.08 µM) | relative viability ([3]; first compound 0.253 µM) | relative viability ([3]; first compound 0.8 µM) | relative viability ([3]; first compound 2.53 µM) | relative viability ([3]; first compound 8 µM) | relative viability ([4]; first compound 0.02 µM) | relative viability ([4]; first compound 0.2 µM) | relative viability ([4]; first compound 0.6325 µM) | relative viability ([4]; first compound 2 µM) | relative viability ([1]; first compound 0.01581 µM) |
| --- | --- | --- | --- | --- | --- | --- | --- | --- | --- | --- | --- | --- | --- | --- | --- | --- | --- | --- |
| 201T | 0.339 | 0.261 | 0.253 | 0.214 | 0.322 | 0.267 | 0.274 | 0.248 | 1.08 | 0.94 | 0.957 | 0.94 | 0.98 | 0.592 | 0.555 | 0.348 | 0.284 | – |
| A-427 | 0.633 | 0.335 | 0.209 | 0.175 | 0.852 | 0.984 | 0.866 | 0.55 | 0.176 | 0.198 | 0.193 | 0.177 | 0.206 | 0.562 | 0.764 | 0.618 | 0.353 | 0.58 |
| ABC-1 | – | – | – | – | – | – | – | – | 0.12 | 0.147 | 0.157 | 0.162 | 0.183 | 0.561 | 0.662 | 0.576 | 0.558 | – |
| BEN | 0.831 | 0.523 | 0.261 | 0.303 | 0.817 | 0.837 | 0.758 | 0.903 | 0.46 | 0.449 | 0.519 | 0.462 | 0.566 | 0.318 | 0.318 | 0.284 | 0.277 | 0.749 |
| CAL-12T | 0.345 | 0.229 | 0.191 | 0.124 | 1.19 | 1 | 0.942 | 0.657 | 0.253 | 0.282 | 0.322 | 0.301 | 0.365 | 0.403 | 0.371 | 0.282 | 0.261 | 0.248 |
| COR-L23 | 0.191 | 0.161 | 0.135 | 0.0959 | 0.194 | 0.195 | 0.194 | 0.185 | 0.591 | 0.242 | 0.179 | 0.186 | 0.238 | 0.529 | 0.467 | 0.254 | 0.186 | 0.151 |
| COR-L 105 | 0.655 | 0.52 | 0.428 | 0.293 | 1.2 | 1.14 | 0.87 | 0.614 | 0.291 | 0.349 | 0.348 | 0.373 | 0.391 | 0.292 | 0.362 | 0.29 | 0.244 | 0.554 |
| ChaGo-K-1 | 0.262 | 0.251 | 0.141 | 0.163 | 0.252 | 0.262 | 0.26 | 0.261 | 0.228 | 0.197 | 0.24 | 0.217 | 0.241 | 0.558 | 0.595 | 0.386 | 0.39 | – |
| EKVX | 0.197 | 0.189 | 0.255 | 0.141 | 0.305 | 0.283 | – | – | 0.417 | 0.334 | 0.345 | 0.434 | 0.407 | – | – | – | – | 0.139 |
| EMC-BAC-2 | 0.362 | 0.258 | 0.255 | 0.224 | 0.47 | 0.479 | 0.419 | 0.484 | 0.269 | 0.298 | 0.287 | 0.278 | 0.315 | 0.343 | 0.332 | 0.368 | 0.35 | 0.273 |
| EPLC-272H | 0.213 | 0.146 | 0.0971 | 0.0691 | 0.242 | 0.23 | 0.269 | 0.274 | 0.152 | 0.25 | – | 0.25 | 0.408 | 0.271 | 0.304 | 0.234 | 0.129 | 0.13 |
| H3255 | 0.481 | 0.305 | 0.213 | 0.135 | 0.557 | 0.6 | 0.557 | 0.449 | 0.593 | 0.546 | 0.413 | 0.616 | 0.619 | 0.304 | 0.5 | 0.328 | 0.359 | 0.392 |
| HARA | 0.195 | 0.134 | 0.138 | 0.168 | 0.244 | 0.231 | 0.212 | 0.289 | 0.0822 | 0.0844 | 0.121 | 0.0886 | 0.103 | 0.274 | 0.388 | 0.232 | 0.192 | 0.167 |
| HCC-15 | 0.217 | 0.189 | 0.157 | 0.134 | 0.219 | 0.217 | 0.21 | 0.218 | 0.29 | 0.423 | 0.318 | 0.421 | 0.37 | 0.701 | 0.713 | 0.417 | 0.275 | 0.188 |
| HCC-44 | 0.629 | 0.583 | 0.27 | 0.235 | 0.641 | 0.625 | 0.569 | 0.471 | 1.08 | 1.04 | – | 0.938 | 0.981 | – | – | – | – | – |
| HCC-78 | 0.978 | 0.882 | 0.927 | 0.881 | 0.924 | 0.866 | 0.858 | 0.915 | 0.445 | 0.476 | 0.403 | 0.42 | 0.367 | 0.34 | 0.427 | 0.322 | 0.254 | 0.893 |
| HCC-366 | 0.133 | 0.0702 | 0.0274 | 0.0293 | 0.142 | 0.145 | 0.0984 | 0.123 | 0.104 | 0.148 | 0.199 | 0.111 | 0.198 | 0.559 | 0.61 | 0.249 | 0.0872 | – |
| HCC-827 | 0.266 | 0.246 | 0.171 | 0.154 | 0.238 | 0.239 | 0.273 | 0.262 | 0.485 | 0.432 | 0.435 | 0.418 | 0.466 | 0.254 | 0.335 | 0.305 | 0.337 | 0.278 |
| HOP-62 | 0.267 | 0.134 | 0.113 | 0.0837 | 0.323 | 0.361 | 0.287 | 0.342 | 0.409 | 0.41 | – | 0.386 | 0.426 | 0.681 | 0.69 | 0.59 | 0.558 | 0.133 |
